Read-outs that look alike come from different tables or passages of the source.
Experiments:
[1] = tested on: A549 (ATCC CCL-185, human lung carcinoma); test: cytotoxicity, growth inhibition of A549 cells, Crystal Violet staining; assay type: cell-based; settings: approximate IC50, three days of incubation at 37° C., read-out: IC50 (μM) A549 ATCC-CCL-L-185
Description: (§1) The antitumour activity of the compounds of the present invention has been detected in vitro by culturing the tumour cells following the methodology described in Bergeron et al (1984), and by Schroeder et al (1981). Activity against different tumours as mouse lymphoma, human NSC lung carcinoma, human melanoma and human colon carcinoma has been observed.
(§2) Biological activity: cells were maintained in logarithmic phase of growth in Eagle's Minimum Essential Medium, with Earle's Balanced Salts, with 2.0 mM L-glutamine, with non-essential amino acids, without sodium bicarbonate (EMEM/neaa); supplemented with 10% Fetal Calf Serium (FCS), 10^−2 M sodium bicarbonate and 0.1 g/l penicillin-G+streptomycin sulfate.
(§3) The tumour cell lines employed have been P-388D1 (ATCC CCL-46, suspension culture of a lymphoid neoplasm from DBA/2 mouse), A549 (ATCC CCL-185, monolayer culture of a human lung carcinoma), HT-29 (ATCC HTB-38, monolayer culture of a human colon carcinoma) and SK-MEL-28 (ATCC HTB-72, monolayer culture of a human melanoma).
(§4) A549, HT-29 and SK-MEL-28 were seeded into 16 mm wells at 2×10^4 cells per well in 1 ml aliquots of MEM 10FCS containing the indicated concentration of drug. A separate set of cultures without drug and was seeded as control growth to ensure that cells remained in exponential phase of growth. All determinations were carried out in duplicate. After three days of incubation at 37° C., 10% CO2 in a 98% humid atmosphere, the wells were stained with 0.1% Crystal Violet. An approximate IC50 was determined by comparing the growth in wells with drug to the growth in wells control.

[2] = tested on: SK-MEL-28 (ATCC HTB-72, human melanoma); test: cytotoxicity, growth inhibition of SK-MEL-28 cells, Crystal Violet staining; assay type: cell-based; settings: approximate IC50, three days of incubation at 37° C.
Description: as §1, §2, §3, §4

[3] = tested on: HT-29 (ATCC HTB-38, human colon carcinoma); test: cytotoxicity, growth inhibition of HT-29 cells, Crystal Violet staining; assay type: cell-based; settings: approximate IC50, three days of incubation at 37° C.
Description: as §1, §2, §3, §4

[4] = tested on: P-388D1 (ATCC CCL-46, lymphoid neoplasm from DBA/2 mouse); test: cytotoxicity, growth inhibition of P-388D1 cells in culture; assay type: cell-based; settings: approximate IC50, three days of incubation at 37° C., growth vs control wells
Description: as §1, §2, §3
as §4, with “P-388D1 cells” for “A549, HT-29 and SK-MEL-28”, “1×10^4” for “2×10^4”, “5FCS” for “10FCS”, “drug” for “drug and”, “expotential” for “exponential”, “an” for “the wells were stained with 0.1% Crystal Violet. An”

Row | melting point [°C] | Compound | IC50 ([1]; Homo sapiens, A549, 72 h) [µM] | IC50 ([2]; Homo sapiens, SK-MEL-28, 72 h) [µM] | IC50 ([3]; Homo sapiens, HT-29, 72 h) [µM] | IC50 ([4]; Mus musculus, P388D1, 72 h) [µM] | IC50 [1] [µM] | IC50 [2] [µM] | IC50 [3] [µM] | IC50 [4] [µM]
1 | 220 to 223 | COc1cc([N+](=O)[O-])c2c3c(c4ccccc4nc13)C=CN2 [Example 3, 6-Methoxy-4-nitro-3H-pyrido[2,3,4-kl]acridine] | 0.03 | 0.03 | 0.34 | 0.34 |  |  |  | 
2 | 128 to 132 | COc1cc(NC(C)=O)c2c3c(c4ccccc4nc13)C=CN2 [Example 4, 4-Acetylamino-6-methoxy-3H-pyrido[2,3,4-kl]acridine] | 0.03 | 0.03 | 1.64 | 1.64 |  |  |  | 
3 |  | COc1ccc2c3c(c4ccccc4nc13)C=CN2 [Example 1, 3H-6-Methoxypyrido[2,3,4-kl]acridine] |  |  |  |  | 0.05 | 0.05 | 0.5 | 0.5

From patent US6559161B1, “Cytotoxic pyrido[2,3,4-ki]acridine derivatives, their preparation and their therapeutic use” (Universidad de Barcelona, priority 1999, dated 2003)
